Each structure is given as a SMILES string. Counter-ions that a name gives are not always drawn.

In this assay the target is T1, human 5HT2A receptor (Homo sapiens, UniProt P28223).
T1 construct: expressed in transfected cells
T1 sequence (P28223 whole entry): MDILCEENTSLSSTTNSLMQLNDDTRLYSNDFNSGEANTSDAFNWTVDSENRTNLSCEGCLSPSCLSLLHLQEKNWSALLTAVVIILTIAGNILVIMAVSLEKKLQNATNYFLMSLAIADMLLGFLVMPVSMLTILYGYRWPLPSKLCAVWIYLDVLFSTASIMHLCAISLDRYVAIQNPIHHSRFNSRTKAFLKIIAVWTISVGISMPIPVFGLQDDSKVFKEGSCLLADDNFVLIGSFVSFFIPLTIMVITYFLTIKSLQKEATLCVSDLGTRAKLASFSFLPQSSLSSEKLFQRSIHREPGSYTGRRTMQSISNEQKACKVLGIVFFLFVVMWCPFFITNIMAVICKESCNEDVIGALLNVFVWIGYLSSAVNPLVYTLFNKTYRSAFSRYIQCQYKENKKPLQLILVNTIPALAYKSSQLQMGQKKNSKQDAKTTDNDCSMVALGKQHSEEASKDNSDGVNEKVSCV
Kind of assay: Receptor Binding Assay, 5HT2A ([3H]N-methyl spiperone). The note with it: BHK cells expressing human 5HT2A receptor, 2.5 nM [3H]N-methyl spiperone, 37° C. As for the experimental part: Cell Culture: BHK cells stably expressing the human 5HT2A receptor were maintained in Dulbecco's Modified Eagle's Medium supplemented with […] Geneticin, 1% Sodium Pyruvate, 1% Pen-Strep and 10% Fetal Calf Serum, and treated with 5 mM sodium butyrate for 24 h to increase receptor expression before harvesting. Cells were harvested by mechanical scraping, washed with Phosphate Buffered Saline, and stored at −80° C. in 10% DMSO in 1 mg/mil aliquots until used. Protein determination was made according to Lowry.
Receptor Binding Assays: The 5HT2A and D2L assays were conducted at 37° C. in a Tris buffer containing salts (50 mM Tris Buffer, pH 7.7; 120 mM NaCl; 5 mM KCl; 2 mM CaCl2; 1 mM MgCl2). Cell membranes (previously prepared and frozen) were rapidly thawed. Membranes were diluted to an appropriate concentration (to produce 100 μg protein/assay point for 5HT2A, and 58 μg protein/assay point for D2L) in Tris buffer and homogenized. Assays were conducted on 96-well plates, using 2.5 and 1 nM [^3H]N-methyl spiperone as radioligand for 5HT2A and D2L assays, respectively. Plates were incubated at 37° C. in a shaking water bath for 30 and 60 min, for 5HT2A and D2L, respectively. Nonspecific binding was defined using 100 μM methylsergide and eticlopride, for 5HT2A and D2L, respectively.
Assays were terminated by rapid filtration through Millipore MAFB or MAFC (5HT2C) filter plates (presoaked in 50 mM Tris HCl, pH 7.7, with 0.1% Brij) using a Millipore Cell Harvester. The filter plates were then washed with ice-cold 50 mM Tris buffer, pH 7.7, and allowed to dry overnight. 50 μl of Microscint scintillation cocktail were added and the plates were counted in a Packard Topcount scintillation counter.
IC50 and Ki calculations were performed using nonlinear regression one-site competition analysis (GraphPad, Prism), with top and bottom limits held constant at 0% and 100% inhibition, respectively. The percent inhibition at each drug concentration was the average of duplicate determinations. Except where indicated, each determination was performed 2 to 5 times.
The compound `CN(C)CCN(Cc1cncc(-c2ccc3[nH]ccc3c2)c1)C(=O)c1ccc(F)cc1` [Example 74, N-(2-Dimethylamino-ethyl)-4-fluoro-N-[5-(1H-indol-5-yl)-pyridin-3-ylmethyl]-benzamide trifluoroacetate] had a Ki of 1.05 nM.

As for `O=C(c1ccc(F)cc1)N(CCN1CCCC1)Cc1ccc(-c2ccc3[nH]ccc3c2)s1` [Example 75], the affinity, expressed as Ki, was 2.14 nM.

The compound `CN1CCC(N(Cc2cc(-c3ccc4[nH]ccc4c3)co2)C(=O)c2ccc(F)cc2)CC1` [Example 76] displayed a Ki of 4.74 nM.

Turning to `O=C(c1ccc(F)cc1)N(Cc1cc(-c2ccc3[nH]ccc3c2)ccc1F)[C@H]1CN2CCC1CC2` [Example 77, N-(1-Aza-bicyclo[2.2.2]oct-3R-yl)-4-fluoro-N-[2-fluoro-5-(1H-indol-6-yl)-benzyl]-benzamide], affinity was put at a Ki of 0.49 nM.

In the case of `O=C(c1ccc(F)cc1)N(Cc1cc(-c2ccc3[nH]c(=O)oc3c2)ccc1F)C1CN2CCC1CC2` (stereo not shown) [Example 78], the affinity, expressed as Ki, was 0.76 nM. Compared with the last compound, the Ki is about 1.6-fold higher.

Regarding `O=C(c1ccc(F)cc1)N(Cc1cc(-c2ccc3[nH]c(=O)oc3c2)ccc1F)[C@H]1CN2CCC1CC2` [Example 79], the inhibition constant Ki was 0.61 nM.

In turn, `Fc1ccc(CN(Cc2cc(-c3ccc4[nH]nnc4c3)ccc2F)C[C@H]2CCCN2)cc1` [Example 80, [5-(1H-Benzothiazol-5-yl)-2-fluoro-benzyl]-(4-fluoro-benzyl)-pyrrolidin-2R-ylmethyl-amine trihydrochloride] showed a Ki of 14.9 nM.

The compound `Fc1ccc(CN(Cc2cc(-c3ccc4[nH]ncc4c3)ccc2F)C[C@@H]2CCCN2)cc1` [Example 81] had a Ki of 2 nM. This Ki is about 7.5-fold lower than that of the compound before.

`Fc1ccc(CN(Cc2cc(-c3ccc4[nH]ncc4c3)ccc2F)C2CCNCC2)cc1` [Example 82] returned a Ki of 0.51 nM.

Compound `CNCCN(Cc1ccc(F)cc1)Cc1cc(-c2ccc3[nH]ncc3c2)ccc1F` [Example 83, N-(4-Fluoro-benzyl)-N-[2-fluoro-5-(1H-indazol-5-yl)-benzyl]-N′-methyl-ethane-1,2-diamine] gave a Ki of 0.82 nM.

Compound `Fc1ccc(-c2ccc3[nH]nnc3c2)cc1CN(Cc1cccs1)C1CCNCC1` [Example 84, [5-(1H-Benzotriazol-5-yl)-2-fluoro-benzyl]-piperidin-4-yl-thiophen-2-ylmethyl-amine] displayed a Ki of 0.37 nM.

Compound `Fc1ccc(CN(Cc2cc(-c3ccc4[nH]nnc4c3)ccc2F)C2CCNCC2)cc1` [Example 85, [5-(1H-Benzotriazol-5-yl)-2-fluoro-benzyl]-(4-fluoro-benzyl)-piperidin-4-yl-amine] came in with a Ki of 0.42 nM.

For the compound `CNCCN(Cc1ccc(F)cc1)Cc1cc(-c2ccc3[nH]nnc3c2)ccc1F` [Example 86, N-[5-(1H-Benzotriazol-5-yl)-2-fluoro-benzyl]-N-(4-fluoro-benzyl)-N′-methyl-ethane-1,2-diamine], the Ki came out at 1.68 nM.

Compound `CCN1CCC[C@H]1CN(Cc1ccc(F)cc1)Cc1cc(-c2ccc3[nH]nnc3c2)ccc1F` [Example 87, [5-(1H-Benzotriazol-5-yl)-2-fluoro-benzyl]-(1-ethyl-pyrrolidin-2S-ylmethyl)-(4-fluoro-benzyl)-amine hydrochloride] showed a Ki of 14.2 nM.

In the case of `CN1CCC(N(Cc2ccc(F)cc2)Cc2cc(-c3ccc4[nH]nnc4c3)ccc2F)CC1` [Example 88, [5-(1H-Benzotriazol-5-yl)-2-fluoro-benzyl]-(4-fluoro-benzyl)-(1-methyl-piperidin-4-yl)-amine hydrochloride], the Ki worked out at 1.16 nM.

`CN1CCC(N(Cc2ccc(F)cc2)Cc2cc(-c3ccc4[nH]c(=O)oc4c3)ccc2F)CC1` [Example 89, 6-(4-Fluoro-3-{[(4-fluoro-benzyl)-(1-methyl-piperidin-4-yl)-amino]-methyl}-phenyl)-3H-benzooxazol-2-one] displayed a Ki of 1 nM.

In turn, `CN1CCC(N(Cc2ccc(F)cc2)Cc2cc(-c3ccc4[nH]ncc4c3)ccc2F)CC1` [Example 90, (4-Fluoro-benzyl)-[2-fluoro-5-(1H-indazol-5-yl)-benzyl]-(1-methyl-piperidin-4-yl)-amine] returned a Ki of 0.42 nM.

The compound `CN1CCN(Cc2cc(-c3ccc4[nH]ccc4c3)ccc2F)C(c2ccco2)C1` (stereo not shown) [Example 93, 5-[4-Fluoro-3-(2-furan-2-yl-4-methyl-piperazin-1-ylmethyl)-phenyl]-1H-indole] came in with a Ki of 0.6 nM.

`CN1CCN(Cc2cc(-c3ccc4[nH]ncc4c3)ccc2F)[C@@H](c2ccc(F)cc2)C1` [Example 96, 5-{4-Fluoro-3-[2S-(4-fluoro-phenyl)-4-methyl-piperazin-1-ylmethyl]-phenyl}-1H-indazole]: affinity was put at a Ki of 0.89 nM.

`CN1CCN(Cc2cc(-c3ccc4[nH]c(=O)oc4c3)ccc2F)[C@@H](c2ccc(F)cc2)C1` [Example 97, 6-{4-Fluoro-3-[2S-(4-fluoro-phenyl)-4-methyl-piperazin-1-ylmethyl]-phenyl}-3H-benzooxazol-2-one]: the inhibition constant Ki amounted to 0.77 nM. This Ki and that of the compound before are within 1.5-fold of each other.

`CN1CCN(Cc2cncc(-c3ccc4[nH]ncc4c3)c2)[C@@H](c2ccc(F)cc2)C1` [Example 99, 5-{5-[2S-(4-Fluoro-phenyl)-4-methyl-piperazin-1-ylmethyl]-pyridin-3-yl}-1H-indazole] showed a Ki of 0.29 nM.

As to `O=C(c1ccc(F)cc1)N(CCCN1CCCC1)Cc1cc(-c2ccc3[nH]ncc3c2)ccc1F` [Example 100, 4-Fluoro-N-[2-fluoro-5-(1H-indazol-5-yl)-benzyl]-N-(3-pyrrolidin-1-yl-propyl)-benzamide], affinity was put at a Ki of 0.6 nM.

Regarding `O=C(c1ccc(F)cc1)N(CCN1CCCC1)Cc1cc(-c2ccc3[nH]nnc3c2)ccc1F` [Example 101, N-[5-(1H-Benzotriazol-5-yl)-2-fluoro-benzyl]-4-fluoro-N-(2-pyrrolidin-1-yl-ethyl)-benzamide], the Ki amounted to 0.39 nM.

On to `CN1CCC(N(Cc2cc(-c3ccc4[nH]ncc4c3)ccc2F)C(=O)c2ccc(F)cc2)CC1` [Example 102, 4-Fluoro-N-[2-fluoro-5-(1H-indazol-5-yl)-benzyl]-N-(1-methyl-piperidin-4-yl)-benzamide], for which the affinity corresponds to a Ki of 0.88 nM. This Ki is about 2.3-fold higher than that of the compound before.

In turn, `O=C(c1ccc(F)cc1)N(Cc1cc(-c2ccc3[nH]ncc3c2)ccc1F)[C@H]1CN2CCC1CC2` [Example 103, N-(1-Aza-bicyclo[2.2.2]oct-3R-yl)-4-fluoro-N-[2-fluoro-5-(1H-indazol-5-yl)-benzyl]-benzamide] had a Ki of 1.01 nM. The Ki values of the last two compounds are within 1.5-fold of each other.

Take `CN1CCC(N(Cc2cc(-c3ccc4[nH]ccc4c3)ccc2F)C(=O)c2ccncn2)CC1` [Example 105, Pyrimidine-4-carboxylic acid [2-fluoro-5-(1H-indol-5-yl)-benzyl]-(1-methyl-piperidin-4-yl)-amide]: the Ki amounted to 3.8 nM.

The compound `CN1CCC(N(Cc2cc(-c3ccc4[nH]ccc4c3)ccc2F)C(=O)c2cccnn2)CC1` [Example 106, Pyridazine-3-carboxylic acid [2-fluoro-5-(1H-indol-5-yl)-benzyl]-(1-methyl-piperidin-4-yl)-amide] returned a Ki of 9 nM.

As to `CN1CCC(N(Cc2cc(-c3ccc4[nH]ccc4c3)ccc2F)C(=O)c2ccnnc2)CC1` [Example 107, Pyridazine-4-carboxylic acid [2-fluoro-5-(1H-indol-5-yl)-benzyl]-(1-methyl-piperidin-4-yl)-amide], the Ki came to 85 nM. Compared with the last compound, the Ki is about 9.4-fold higher.

On to `CN1CCC(N(Cc2cc(-c3ccc4[nH]ccc4c3)ccc2F)C(=O)c2ncccn2)CC1` [Example 108, Pyrimidine-2-carboxylic acid [2-fluoro-5-(1H-indol-5-yl)-benzyl]-(1-methyl-piperidin-4-yl)-amide], for which the Ki is 16 nM.

`CC(C)Oc1ccc(C(=O)N(Cc2cc(-c3ccc4[nH]ccc4c3)ccc2F)C2CCN(C)CC2)cc1` [Example 110, N-[2-Fluoro-5-(1H-indol-5-yl)-benzyl]-4-isopropoxy-N-(1-methyl-piperidin-4-yl)-benzamide]: the affinity corresponds to a Ki of 85 nM. This Ki lies about 5.3-fold higher than the previous one.

As for `CC(C)Oc1cccc(C(=O)N(Cc2cc(-c3ccc4[nH]ccc4c3)ccc2F)C2CCN(C)CC2)c1` [Example 111, N-[2-Fluoro-5-(1H-indol-5-yl)-benzyl]-3-isopropoxy-N-(1-methyl-piperidin-4-yl)-benzamide], the Ki came out at 85 nM.

Regarding `CN1CCC(N(Cc2cc(-c3ccc4[nH]ccc4c3)ccc2F)C(=O)c2ccc(OC(F)(F)F)cc2)CC1` [Example 112, N-[2-Fluoro-5-(1H-indol-5-yl)-benzyl]-N-(1-methyl-piperidin-4-yl)-4-trifluoromethoxy-benzamide], the inhibition constant Ki came to 6 nM. This Ki lies about 14-fold lower than the previous one.

Turning to `Fc1ccc([C@H]2CNCCN2Cc2cncc(-c3ccc4[nH]ncc4c3)c2)cc1` [Example 113, 5-{5-[2S-(4-Fluoro-phenyl)-piperazin-1-ylmethyl]-pyridin-3-yl}-1H-indazole], the affinity corresponds to a Ki of 0.4 nM. This Ki lies about 15-fold lower than the previous one.

Consider `Fc1ccc([C@H]2CNCCN2Cc2cncc(-c3ccc4[nH]ccc4c3)c2)cc1` [Example 114, 5-{5-[2S-(4-Fluoro-phenyl)-piperazin-1-ylmethyl]-pyridin-3-yl}-1H-indole acetate], for which the affinity, expressed as Ki, was 0.48 nM.

For the origin of these results see US7625889B2, “Substituted bis aryl and heteroaryl compounds as selective 5HT2A antagonists” (Aventis Pharmaceuticals Inc., priority 2005, dated 2009).
